From US5498624A, “Selected pyrazolyl derivatives” (Monsanto Company, priority 1995, dated 1996)

Assays:
[1] = test system: Uncinula necator; experiment: Vine Powdery Mildew Foliar Assay (VPM Prot); type: in vivo; details: vine seedlings
Method: A) Pathogen/Inoculum--Vine powdery mildew, caused by Uncinula necator, is an obligate parasite and must be maintained on a living host. Seedling leaves (2-5 leaf stage) of Vitis vinifera var. Carignane, are inoculated by brushing them with the leaves of infected plants. Incubation environment is the same as that described for incubation (Sec. D).
B) Host Propagation- Approximately 60 gm of seed are removed from cold storage and soaked in water for 2-3 days with frequent (3 or more) water changes each day. They are then combined with 24 gm of vermiculite and 30 ml of distilled water and put into refrigeration for 4-5 weeks. After this `vernalization` period, they are planted, 3 seeds/pot, into individual 2.25" pots filled with a commercial potting mix. The pots are watered well, and placed into a growth chamber set at 24° C., 85% RH and a 12 hour photoperiod at 200-300 me/m^2 /sec. The seedlings are thinned to one seedling/pot approximately 14 days after planting. After four to five additional days, seedlings are moved to the greenhouse. Plants are ready for assay 4-6 weeks after planting.
C) Test Compound Preparation
1) Experimental compounds--A final formulation of each of the compounds of the present invention in 20% acetone, 0.1% Tween®20 and 79.9% water is foliarly applied to the seedling vines at about 1.5 mls/pot (4 pots/treatment) using a DeVilbiss 152 sprayer at the rate of 100, 20 and 10 ppm. The seedlings have 2-4 true leaves at application. Treated pots are allowed to dry in a vented room and are then moved to the inoculation growth chamber (see Sec. D for settings).
2) Controls and standards--The commercial product RALLY=NOVA (myclobutanil)is used as an internal standard. Formulated myclobutanil 40 WP is applied at 100 and 20 ppm in water. Also included in the test is an inoculated control treatment (a water/acetone formulation blank).
D) Inoculation/Incubation--Treated vines are inoculated 24 hours after chemical application. Several diseased leaves are removed from inoculum production plants and are very gently brushed on the leaves of the test plants. This gentle contact and agitation allows spores to be dislodged from diseased leaves and fall onto test plant leaves.
The inoculation/incubation growth chamber is set at 24° C., 85% RH, and 12 hour photoperiod at 350 me/m^2 /sec.
E) Evaluation--The test is rated 7-9 days after inoculation or upon maximum disease expression. Percent area infected with disease is determined for each replicate. Treatment means are calculated and percent disease control is determined by the formula "(control mean--treatment mean) * 100 / control mean". The untreated/inoculated control treatment is used for this calculation. […]

[2] = test system: Venturia inaequalis; experiment: In Vitro Apple Scab Assay (ASC In Vitro); type: cell-based; details: germ tube length
Method: A) Pathogen/Inoculum Production--A suspension of Venturia inaequalis conidia, adjusted to 150,000 spores/ml, is prepared using freshly harvested or frozen conidia. Apple seedlings, cv. McIntosh, are sprayed with this suspension and incubated in a high humidity chamber set at 20° C. with a 12 hour photoperiod for approximately four weeks. At maximum disease expression, a fine mist of deionized water is used to wash conidia from sporulating lesions and the resulting liquid/spore suspension is collected into glass vials and frozen at -80° C. for future use.
B) Compound Preparation--Water agar with 1.5% agar m/v is autoclaved to sterilization. Stock solutions of each compound of the present invention are made by solubilizing them in an appropriate solvent at a convenient concentration. Serial dilutions in solvent are made from this stock to execute the various test rates. When the molten agar is cool enough to pour, the compounds in solvent are dispensed into the agar such that the final concentration ratio of agar to solvent is 100:1. The agar is gently agitated and poured into petri plates, one plate per treatment. The standard used is 3-(difluoromethyl)-N-2,3-dihydro-1,1,3-trimethyl-1H-inden-4-yl)-1-Methyl-1H-Pyrazole-4-carboxamide as found in U.S. Pat. No. 5,093,347.
C) Test Execution--Twenty-four hours after pouring, the plates are ready for inoculation. The previously collected frozen spore suspension is thawed at room temperature and diluted to a concentration of 1×10^4 spores/ml with sterile water. Three drops of approximately 0.1 ml each of the suspension are placed into each plate in an equidistant configuration. The plates are then placed in a dark incubator set at 20° C.
D) Test Evaluation--Forty to forty-eight hours later, the lengths of the spore germ tubes are measured using an ocular lens scale on a binocular microscope. Ten germ tubes in a drop are measured and an average determined for that drop. This procedure is repeated for the other two drops. The values for the three drops are then averaged to give the mean for the treatment. Percent inhibition of germination is calculated using the following equation: % Inhibition=(avg. control length--avg. treatment length/avg. control length) X 100.

[3] = test system: Wheat Leaf Rust; experiment: Wheat Leaf Rust Foliar Assay (WLR Prot); type: in vivo; details: 20 ppm foliar protectant
Method: A) Pathogen/Inoculum Production--Urediospores of previously infected plants are collected using a small vacuum device and stored in glass vials at -2° C. Just before inoculation the requisite number of vials are warmed and the spores suspended in Soltrol, a light machine oil.
(B) Host Propagation, (C) Compound Preparation and (D) Compound Application follow as per Example 1.
E) Inoculation/Incubation--To inoculate the plants, the urediospore/Soltrol suspension, adjusted to 5×10^4 spores/ml, is applied in a light coating to the foliage, and the plants are placed in a mist tent for 12 to 18 hours at 20° C. in the dark. The test can then be returned to the previous growing conditions until foliar symptoms are evident and the plants can be assessed.
F) Test Evaluation--About 7 days after the plants are removed from the mist tent, the rust lesions should be evident. Three leaves in each pot (replicate) are assessed for percent infection. Phytotoxicity and growth effects are also noted at this time.
G) Data--Follows as per Example 1.

Row | SMILES | VPM Prot percent disease control ([1]; 10 ppm foliar protectant) | VPM Prot percent disease control ([1]; 20 ppm foliar protectant) | ASC In vitro (A.I.) Activity Index ([2]; 0.1 ppm in water agar) | ASC In vitro (A.I.) Activity Index ([2]; 1.0 ppm in water agar) | WLR Prot percent disease control [3] | VPM Prot percent disease control ([1]; 100 ppm foliar protectant)
1 | C[C@H]1CCC[C@H](c2ccccc2NC(=O)c2cn(C)nc2C(F)F)C1 (relative stereo) [Number 3, 1H-pyrazole-4-carboxamide, 3-(difluoromethyl)-1-methyl-N-[2-(3-methylcyclohexyl)phenyl]-, trans-] | 34% | 51% | 3 | 3 | 100% | 
2 | C[C@@H]1CCC[C@H](c2ccccc2NC(=O)c2cn(C)nc2C(F)F)C1 (relative stereo) [Number 2, 1H-pyrazole-4-carboxamide, 3-(difluoromethyl)-1-methyl-N-[2-(-3-methylcyclohexyl)phenyl]-, cis-] |  | 76% | 3 | 3 | 96% | 91%
